Data: patent US20230241150A1, “Compositions and Uses Thereof” (Natur-Tech Pharmacal Co., Ltd, priority 2020, published 2023)
Marks after values point to notes of the source that are not given here.

Experiments:
[1] = system: brain of convulsive mice; type: in vivo, ICR mice; details: carbamazepine 80 mg/kg intragastric daily 7 days; PTZ 80 mg/kg i.p.; n=12
Method: (§1) The mice in each group were given intragastric administration daily, for 7 consecutive days. 30 minutes after the last administration, except for the blank control group, the mice in the other groups were injected intraperitoneally with 80 mg/kg of PTZ to induce convulsions in the mice. Each mouse was placed in a separate cage for observation for 30 minutes, and behavioral changes such as stages of seizure, duration, latent period and mortality rate of the mice were recorded.
After completing the behavioral observation determined by the above relevant indicators, experiments were conducted to study the effect of the composition on the contents of NO, Na-K-ATP, Asp, and 5-HT in the brain of convulsive mice. After the behavioral observation was over, the mice were immediately executed, and the brain tissues and the required organs were quickly taken out, weighed, and then the brain tissues were placed in liquid nitrogen and stored in a refrigerator at -80° C. Blood stains on the surface were washed off with pre-cooled saline before measurement. The tissues were then weighed and PBS was added in a volume ratio of 1:9 to fully homogenize the brain tissues. The homogenate was centrifuged at 3000 r/min for 20 minutes. The supernatant was collected as samples for subsequent ELISA test to detect the content of GABA, Glu, NO, Na^+-K^+-ATP, Asp, 5-HT, etc.

[2] = system: PTZ-induced epileptic mice; test: PTZ-induced epilepsy in mice: seizure stage (Racine scale), convulsions, mortality; type: in vivo, ICR mice; details: carbamazepine 80 mg/kg intragastric daily 7 days; PTZ 80 mg/kg i.p.; n=12
Text: As known to those skilled in the art, pentylenetetrazole (PTZ) is a powerful seizure-inducing agent, and its epileptic model is considered to be one of the ideal models for systemic tonic seizures. PTZ itself has no special neurotoxicity, so it is widely used in the study of epilepsy pathogenesis and the screening of anti-epileptic drugs. When PTZ induces epilepsy in mice, its seizures are characterized by clonic seizures in the initial stage, followed by systemic tonic seizures soon afterwards. PTZ is a central nervous system stimulant that acts on GABA-GABAA receptor system. It promotes the enhancement of the excitatory synaptic facilitation and reduces the release of GABA. This in turn reduces the inhibitory ability, increases the sensitivity to convulsions, and increases the excitability of the central nervous system, thereby inducing EP. According to its seizure characteristics, in this experiment, these two seizure forms were used as indicators and combined with the current Racine scale to analyze their epileptic behavior.
as §1
The Racine scale (see: https://en.wikipedia.org/wiki/Racine_stages) was used to determine the level of epilepsy in mice: • Stage 0: No response; • Stage I: Wet dog shakes, facial twitches, clonus, tremors (such as eye blinking, moustache movements, rhythmic chewing, etc.); • Stage II: Stage I plus rhythmic nodding; • Stage III: Stage II plus forelimb clonus, but no rearing; • Stage IV: Rearing and oblique bilateral falling, or rearing with forelimb clonus; and • Stage V: Imbalance, tipping, twitching of limbs, generalized clonus, generalized tonic seizures, falling, rolling, and loss of postural control.

NC(=O)N1c2ccccc2C=Cc2ccccc21 [Carbamazepine]
5-HT content in the brain [1]: 14.6 ± 2.6 ng/L
NO content in the brain [1]: 26.4 ± 2.5 µmol/L
Na-K-ATP content in the brain [1]: 192.1 ± 5.7 ng/L
Duration of convulsions [2]: 165.3 ± 32.5 s
Latent period of convulsions [2]: 365.2 ± 25.6 s
Morality rates [2]: 16.7%
Number of convulsions [2]: 8
number of seizures, Stage I [2]: 0.9±0.4
number of seizures, Stage II [2]: 1.4±0.8
number of seizures, Stage III [2]: 1.5±0.8
number of seizures, Stage IV [2]: 2.1±1.8
number of seizures, Stage V [2]: 6.3±2.1
seizure behavior: number of mice at Stage 0 [2]: 1
seizure behavior: number of mice at Stage I [2]: 3
seizure behavior: number of mice at Stage II [2]: 3
seizure behavior: number of mice at Stage III [2]: 2
seizure behavior: number of mice at Stage IV [2]: 2
seizure behavior: number of mice at Stage V [2]: 1*
